Results taken from patent US8163737B2 (Vertex Pharmaceuticals Incorporated, priority 2006, dated 2012).

Molecular target: endogenous CGRP receptor (Homo sapiens, UniProt O60894+Q16602)
Test: CGRP functional antagonism using SK-N-MC-BLA (4C10), β-lactamase transcriptional reporter assay
Assay type: cell-based
Details: SK-N-MC (4C10) cells, inhibition of β-lactamase expression in the presence of 200 pM CGRP
From the text: Measuring CGRP Functional Antagonism Using SK-N-MC-BLA (4C10):
CGRP functional antagonism was characterized in a cell based transcriptional assay using a recombinant SK-N-MC line. To introduce the transcriptional reporter system, SK-N-MC cell line was transduced with a retroviral vector containing β-lactamase gene downstream of cAMP responsive promoter. The expression of β-lactamase is triggered by cAMP increase that is a downstream event of activation of endogenous CGRP receptor. Single clones were separated using Fluorescent Activated Cell Sorting (FACS) based on CGRP induced β-lactamase activity. β-lactamase activity was measured using a fluorescence energy transfer (FRET) dye, CCF4. […] To evaluate functional antagonist activity of compounds in SK-N-MC (4C10) line, compounds were evaluated for their inhibition of β-lactamase expression in the presence of CGRP.
SK-N-MC (4C10) was cultured in Minimal Essential Media (MEM) (Invitrogen) supplemented with 1 mM non-essential amino acids solution (Invitrogen), 100 units/ml Penicillin-Streptomycin (Invitrogen), 1 mM sodium pyruvate (Invitrogen) and 10% fetal bovine serum. For the β-lactamase assay, low serum, 1% FBS in MEM was used. 30,000 cells were plated into each wells of poly-D-lysine coated 384-well plate (Becton Dickinson) a day prior to the assay. SK-N-MC (4C10) was preincubated with compounds for 30 min before the addition of 200 pM CGRP. The assay was incubated for 3 hours at 37° C. to allow β-lactamase expression. CCF4 dye was added and incubated for 2 hours at room temperature. […] Curve fitting and IC50 calculation were carried about using MOD3.

Sequence of endogenous CGRP receptor (Q16602 23-461): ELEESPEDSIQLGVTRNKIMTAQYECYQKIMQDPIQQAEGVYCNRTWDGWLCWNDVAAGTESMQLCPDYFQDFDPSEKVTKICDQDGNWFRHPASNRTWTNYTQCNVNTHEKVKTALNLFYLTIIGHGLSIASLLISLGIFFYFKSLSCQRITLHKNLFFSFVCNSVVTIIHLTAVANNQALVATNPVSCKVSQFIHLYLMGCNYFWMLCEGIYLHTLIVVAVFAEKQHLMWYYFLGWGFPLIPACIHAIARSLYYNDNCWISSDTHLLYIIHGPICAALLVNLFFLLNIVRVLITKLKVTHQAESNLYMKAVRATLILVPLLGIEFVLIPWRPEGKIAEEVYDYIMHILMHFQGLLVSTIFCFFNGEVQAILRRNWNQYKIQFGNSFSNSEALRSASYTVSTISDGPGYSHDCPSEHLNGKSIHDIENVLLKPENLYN
Sequence of endogenous CGRP receptor (O60894 27-148): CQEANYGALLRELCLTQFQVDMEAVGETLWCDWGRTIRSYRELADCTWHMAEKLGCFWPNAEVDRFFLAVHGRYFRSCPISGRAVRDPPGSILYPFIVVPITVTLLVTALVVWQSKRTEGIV

Compound | IC50
CC(C)(C)CCN1C(=O)C(CC(=O)N2CCC(N3Cc4ccccc4NC3=O)CC2)SC1c1ccccc1F (stereo not drawn) [Compound 252] | < 1 µM
CC(C)CCN1C(=O)C(CC(=O)N2CCC(N3Cc4ccccc4NC3=O)CC2)SC12CCC(C(F)(F)F)CC2 (stereo not drawn) [Compound 253] | 1 to 5 µM
C=CCN1C(=O)C(CC(=O)N2CCC(N3Cc4ccccc4NC3=O)CC2)SC1c1ccccc1 (stereo not drawn) [Compound 254] | 1 to 5 µM
CN1CCN(c2ccccc2C2SC(CC(=O)N3CCC(n4cc(-c5ccccc5)[nH]c4=O)CC3)C(=O)N2CCC(C)(C)C)CC1 (stereo not drawn) [Compound 257] | < 1 µM
CC(C)CCN1C(=O)C(CC(=O)N2CCC(N3CCc4ccccc4NC3=O)CC2)SC1C1CCOCC1 (stereo not drawn) [Compound 258] | 1 to 5 µM
CC(C)CCN1C(=O)C(CC(=O)N2CCC3(CC2)CNC(=O)O3)SC1c1ccccc1 (stereo not drawn) [Compound 261] | > 5 µM
CC(C)CCN1C(=O)C(CC(=O)N2CCC(N3CCc4ccccc4NC3=O)CC2)SC1CCc1ccccc1 (stereo not drawn) [Compound 262] | 1 to 5 µM
Cc1c(F)cccc1C1SC(CC(=O)N2CCC(N3Cc4ccccc4NC3=O)CC2)C(=O)N1CCC(C)C (stereo not drawn) [Compound 267] | < 1 µM
CCCN1C(=O)C(CC(=O)N2CCC(N3Cc4ccccc4NC3=O)CC2)SC1c1ccccc1 (stereo not drawn) [Compound 269] | 1 to 5 µM
CC(C)CCN1C(=O)C(CC(=O)N2CCC(N3C(=O)Cc4ccccc43)CC2)SC1c1ccccc1 (stereo not drawn) [Compound 270] | > 5 µM
COc1ccc(C2SC(CC(=O)N3CCC(N4Cc5ccccc5NC4=O)CC3)C(=O)N2CCC(C)C)cc1 (stereo not drawn) [Compound 272] | 1 to 5 µM
CN1C(=O)C(CC(=O)N2CCC(N3Cc4ccccc4NC3=O)CC2)SC1c1ccccc1 (stereo not drawn) [Compound 273, 3,4-Dihydro-3-(1-(2-(3-methyl-4-oxo-2-phenylthiazolidin-5-yl)acetyl)piperidin-4-yl)quinazolin-2(1H)-one] | 1 to 5 µM
CN1CCN(c2ccccc2[C@@H]2SC(CC(=O)N3CCC(n4c(=O)[nH]c5ncccc54)CC3)C(=O)N2CCC(C)(C)C)CC1 (stereo partly drawn) [Compound 274] | < 1 µM
CC(C)CCN1C(=O)C(CC(=O)N2CCC(N3Cc4ccccc4NC3=O)CC2)SC12CCC2 (stereo not drawn) [Compound 275] | > 5 µM
CC(C)CCN1C(=O)C(CC(=O)N2CCC(N3Cc4ccccc4NC3=O)CC2)SC1CC(C)(C)C (stereo not drawn) [Compound 276] | 1 to 5 µM
CC(C)(C)CCN1C(=O)C(CC(=O)N2CCC(N3CCc4ccccc4NC3=O)CC2)SC1c1cccc2cc[nH]c12 (stereo not drawn) [Compound 277] | < 1 µM
O=C(CC1SC(c2ccccc2)N(CCC(F)(F)F)C1=O)N1CCC(N2CCc3ccccc3NC2=O)CC1 (stereo not drawn) [Compound 280] | < 1 µM
COc1ccc(F)cc1C1CCN(C(=O)CC2SC(c3ccccc3)N(CCC(C)C)C2=O)CC1 (stereo not drawn) [Compound 281] | > 5 µM
CCN1C(=O)C(CC(=O)N2CCC(N3CCc4ccccc4NC3=O)CC2)SC1c1ccccc1 (stereo not drawn) [Compound 284] | 1 to 5 µM

Compound | IC50
CC(C)CCN1C(=O)C(CC(=O)N2CCC(n3c(=O)[nH]c4ccccc43)CC2)SC1c1ccccc1-n1cccn1 (stereo not drawn) [Compound 291] | < 1 µM
CC(C)CCN1C(=O)C(CC(=O)N2CCC(n3c(=O)[nH]c4ccccc43)CC2)SC1c1ccccc1N1CCCCC1 (stereo not drawn) [Compound 292] | 1 to 5 µM
CC(C)CCN1C(=O)C(CC(=O)N2CCC(n3c(=O)[nH]c4ccccc43)CC2)SC1c1ccccc1N(C)C (stereo not drawn) [Compound 293] | < 1 µM
CC(C)CCN1C(=O)C(CC(=O)N2CCC(n3c(=O)[nH]c4ccccc43)CC2)SC1c1ccccc1N1CCOCC1 (stereo not drawn) [Compound 294] | < 1 µM
CC(C)(C)CCN1C(=O)C(CC(=O)N2CCC(n3c(=O)[nH]c4ccccc43)CC2)SC1c1ccccc1N1CCCCC1 (stereo not drawn) [Compound 298] | < 1 µM
CC(C)(C)CCN1C(=O)C(CC(=O)N2CCC(n3c(=O)[nH]c4ccccc43)CC2)SC1c1ccccc1N1CCOCC1 (stereo not drawn) [Compound 300] | < 1 µM
CC(C)(C)CCN1C(=O)C(CC(=O)N2CCC(N3Cc4ccccc4NC3=O)CC2)SC1c1c[nH]cn1 (stereo not drawn) [Compound 305] | 1 to 5 µM
CC(C)(C)CCN1C(=O)C(CC(=O)N2CCC(N3CCc4ccccc4NC3=O)CC2)SC12CCCc1ccccc12 (stereo not drawn) [Compound 308] | < 1 µM
CC(C)(C)CCN1C(=O)C(CC(=O)N2CCC(N3Cc4ccccc4NC3=O)CC2)SC12c1ccccc1-c1ccccc12 (stereo not drawn) [Compound 309] | 1 to 5 µM
CC(C)(C)CCN1C(=O)C(CC(=O)N2CCC(N3CCc4ccccc4NC3=O)CC2)SC12c1ccccc1-c1ccccc12 (stereo not drawn) [Compound 310] | < 1 µM
CC(C)(C)CCN1C(=O)C(CC(=O)N2CCC(n3c(=O)[nH]c4ccccc43)CC2)SC12c1ccccc1-c1ccccc12 (stereo not drawn) [Compound 311] | 1 to 5 µM
CC(C)(C)CCN1C(=O)C(CC(=O)N2CCC(N3Cc4ccccc4NC3=O)CC2)SC1(C)c1ccccc1 (stereo not drawn) [Compound 312] | < 1 µM
CC(C)(C)CCN1C(=O)C(CC(=O)N2CCC(N3CCc4ccccc4NC3=O)CC2)SC1c1c[nH]cn1 (stereo not drawn) [Compound 313] | < 1 µM
CC(C)(C)CCN1C(=O)C(CC(=O)N2CCC(N3CCc4ccccc4NC3=O)CC2)SC1c1ncc[nH]1 (stereo not drawn) [Compound 314] | > 5 µM
CC(C)(C)CCN1C(=O)C(CC(=O)N2CCC(N3CCc4ccccc4NC3=O)CC2)SC12CCc1ccccc12 (stereo not drawn) [Compound 318] | < 1 µM
CN1CCN(c2ccccc2C2SC(CC(=O)N3CCC(N4Cc5cccnc5NC4=O)CC3)C(=O)N2CCC(C)(C)C)CC1 (stereo not drawn) [Compound 320] | < 1 µM
CN1CCN(c2c(F)cccc2C2SC(CC(=O)N3CCC(N4Cc5ccccc5NC4=O)CC3)C(=O)N2CCC(C)(C)C)CC1 (stereo not drawn) [Compound 323] | < 1 µM
CN1CCN(c2c(F)cccc2C2SC(CC(=O)N3CCC(n4cc(-c5ccccc5)[nH]c4=O)CC3)C(=O)N2CCC(C)(C)C)CC1 (stereo not drawn) [Compound 325] | < 1 µM
CN1CCN(c2ccccc2C2SC(CC(=O)N3CCC4(CC3)CC(=O)c3ccccc3O4)C(=O)N2CCC(C)(C)C)CC1 (stereo not drawn) [Compound 332] | > 5 µM

Compound | IC50
CN1CCN(c2ccccc2[C@@H]2S[C@](C)(CC(=O)N3CCC(N4Cc5ccccc5NC4=O)CC3)C(=O)N2CCC(C)(C)C)CC1 [Compound 333] | 1 to 5 µM
CN1CCN(c2ccccc2[C@H]2S[C@](C)(CC(=O)N3CCC(N4Cc5ccccc5NC4=O)CC3)C(=O)N2CCC(C)(C)C)CC1 [Compound 334] | < 1 µM
CN1CCN(c2c(F)cccc2C2SC(CC(=O)N3CCC(n4c(=O)[nH]c5ccccc54)CC3)C(=O)N2CCC(C)(C)C)CC1 (stereo not drawn) [Compound 338] | < 1 µM
CC(C)N1CCN(c2c(F)cccc2C2SC(CC(=O)N3CCC(n4cc(-c5ccccc5)[nH]c4=O)CC3)C(=O)N2CCC(C)(C)C)CC1 (stereo not drawn) [Compound 342] | 1 to 5 µM
CCN1CCN(c2c(F)cccc2C2SC(CC(=O)N3CCC(N4Cc5ccccc5NC4=O)CC3)C(=O)N2CCC(C)(C)C)CC1 (stereo not drawn) [Compound 344] | < 1 µM
CCN1CCN(c2c(F)cccc2C2SC(CC(=O)N3CCC(n4cc(-c5ccccc5)[nH]c4=O)CC3)C(=O)N2CCC(C)(C)C)CC1 (stereo not drawn) [Compound 346] | < 1 µM
CN1CCN(c2ccc(F)cc2C2SC(CC(=O)N3CCC(N4CCc5ccccc5NC4=O)CC3)C(=O)N2CCC(C)(C)C)CC1 (stereo not drawn) [Compound 352] | < 1 µM
CN1CCN(c2c(Cl)cccc2C2SC(CC(=O)N3CCC(N4CCc5ccccc5NC4=O)CC3)C(=O)N2CCC(C)(C)C)CC1 (stereo not drawn) [Compound 356] | < 1 µM
CN1CCN(c2c(Cl)cccc2C2SC(CC(=O)N3CCC(n4cc(-c5ccccc5)[nH]c4=O)CC3)C(=O)N2CCC(C)(C)C)CC1 (stereo not drawn) [Compound 358] | > 5 µM
CN1CCN(c2cc(F)ccc2C2SC(CC(=O)N3CCC(N4Cc5ccccc5NC4=O)CC3)C(=O)N2CCC(C)(C)C)CC1 (stereo not drawn) [Compound 360] | < 1 µM
CN1CCN(c2cc(F)ccc2C2SC(CC(=O)N3CCC(N4CCc5ccccc5NC4=O)CC3)C(=O)N2CCC(C)(C)C)CC1 (stereo not drawn) [Compound 361] | 1 to 5 µM
CN1CCN(c2cc(F)ccc2C2SC(CC(=O)N3CCC(n4c(=O)[nH]c5ncccc54)CC3)C(=O)N2CCC(C)(C)C)CC1 (stereo not drawn) [Compound 362] | 1 to 5 µM
CCCCN1CCN(c2ccccc2C2SC(CC(=O)N3CCC(N4Cc5ccccc5NC4=O)CC3)C(=O)N2CCC(C)(C)C)CC1 (stereo not drawn) [Compound 364] | > 5 µM
CCCCN1CCN(c2ccccc2C2SC(CC(=O)N3CCC(n4c(=O)[nH]c5ncccc54)CC3)C(=O)N2CCC(C)(C)C)CC1 (stereo not drawn) [Compound 366] | < 1 µM
CN1CCCN(c2ccccc2C2SC(CC(=O)N3CCC(N4Cc5ccccc5NC4=O)CC3)C(=O)N2CCC(C)(C)C)CC1 (stereo not drawn) [Compound 369] | 1 to 5 µM
CN1CCCN(c2ccccc2C2SC(CC(=O)N3CCC(N4CCc5ccccc5NC4=O)CC3)C(=O)N2CCC(C)(C)C)CC1 (stereo not drawn) [Compound 370] | < 1 µM
CC(C)(C)CCN1C(=O)C(CC(=O)N2CCC(N3CCc4ccccc4NC3=O)CC2)SC1c1ccccc1N1CCN(CCO)CC1 (stereo not drawn) [Compound 372] | > 5 µM
CN1CCN(c2ccccc2[C@H]2S[C@](C)(CC(=O)N3CCC(N4CCc5ccccc5NC4=O)CC3)C(=O)N2CCC(C)(C)C)CC1 [Compound 377] | 1 to 5 µM
CN1CCN(c2ccccc2[C@@H]2S[C@](C)(CC(=O)N3CCC(n4c(=O)[nH]c5ncccc54)CC3)C(=O)N2CCC(C)(C)C)CC1 [Compound 378] | < 1 µM
